Laboratory results published in US20090047288A1, “Glucan compositions and methods of enhancing CR3 dependent neutrophil-mediated cytotoxicity” (priority 2006, published 2009).

Key:
[1] = system: low-grade or slow-growing NHL; settings: 166 patients with advanced low-grade or slow-growing NHL, cited from earlier work
[2] = system: PI 3-kinase; experiment: PI 3-kinase activity after dual ligation of CR3 in human neutrophils (ELISA); assay type: cell-based; settings: dual ligation plus inhibitor: LY294002 50 μM, Piceatannol 25 μM; one hour
Description: Human neutrophils were stimulated with anti-M1/70 mAb (1 μg/ml) followed with goat-anti-rat Ig (5 μg/ml) in the presence or absence of the 25 kD active moiety of β-glucan (10 μg/ml) at 37° C. […] For measurement of PI 3-kinase activity, cells were stimulated for one hour and aliquots of cell lysates adjusted for protein concentration (500 μg of protein) were incubated for two hours at 4° C. with anti-PI 3-kinase p85 antibody, and immune complexes were adsorbed onto protein A-agarose for three hours. The complexes were then washed twice with lysis buffer and three times with 10 mM Tris-HCl, pH 7.4. To ensure that PI 3-kinase levels remained equivalent at the end of the immunoprecipitation, 10% from each treatment sample were collected during the last wash in a separate tube and analyzed by SDS-PAGE and immunoblotting with Abs to the p85 PI 3-kinase subunit. […] In brief, cell lysates were prepared and PI-3K was immunoprecipitated with antibody against the p85 subunit and incubated with PI(4,5)P2 (phosphatidylinositol-4,5-diphosphate). […]
Additionally, human peripheral blood neutrophils were stimulated with M1/70 mAb followed by secondary Ab (with or without 25 kD β-glucan) or 25 kD β-glucan alone for one hour. […] The immunoprecipitates were analyzed on SDS-PAGE gel and blotted with anti-PI 3-kinase p85 mAb. The immunoprecipitates were also measured for PI 3-kinase activity by ELISA. […]

Molecule	patients having complete remission [1]	patients whose tumors shrunk by at least one half ([1]; those who completed treatment)	PI 3-kinase activity (level of PI(3,4,5)P3) [2]
rituximab: monoclonal antibody used to treat non-Hodgkin's lymphoma	6%	48%	–
O=c1cc(N2CCOCC2)oc2c(-c3ccccc3)cccc12 [LY294002]	–	–	9.05 ± 1.14 µM
Oc1cc(O)cc(/C=C/c2ccc(O)c(O)c2)c1 [Piceatannol]	–	–	17.1 ± 1.5 µM
